# Experimental data reported in patent US20160015701A1, “Methods of Treating Acute Kidney Injury” (ABBIVE INC., priority 2013, published 2016).
# Read-outs that look alike come from different tables or passages of the source.
# Tests used:
# [1] = system: unilateral ischemic renal injury; assay: unilateral ischemia/reperfusion (I/R) injury protocol, renal weight two weeks post ischemia; format: in vivo, CD-1 mice
# Method: (§1) All experiments were performed using male 30-45 gram CD-1 mice, obtained from Charles River Laboratories, Wilmington, Mass. They were housed under routine vivarium conditions with free food and water access. Surgeries were conducted under deep pentobarbital anesthesia (40-50 mg/Kg IP). Post surgical analgesia was provided with buprenorphine (0.1 mg/Kg IP) at the completion of surgery. All procedures were approved by the institution's IACUC, in accordance with NIH guidelines.
# In this example, ET-1 and ETA/ETB receptor expression were quantified following ischemic renal injury, and ET-1 gene chromatin remodeling and RNA polymerase II (Pol II) binding were evaluated. Ten mice were subjected to a midline laparotomy, and the left renal pedicles were exposed and occluded ×30 min using atraumatic microvascular clamps. Uniform ischemia was confirmed by the development of total kidney cyanosis (indicating hypoxia). Body temperature was monitored with an intra-abdominal thermometer and maintained at 37° C. with an external heating source. At the completion of the ischemic period, the vascular clamp was removed, and uniform reperfusion was confirmed by loss of kidney cyanosis. The abdominal incision was then sutured in two layers using 3-0 chromic suture. The mice were then allowed to recover from anesthesia. Ten additional mice, subjected to the same surgical procedure, but not to renal pedicle occlusion, served as sham-operated controls.
# This example studied whether atrasentan treatment, during pre- and post-ischemic period, confers renal protection. Eighteen mice were subjected to a unilateral ischemia/reperfusion (I/R) protocol as described in Example 1. […] Atrasentan was administered in the drinking water (25 μg/mL; designed to equate with a dose of ˜5 mg/Kg/day). Atrasentan dosing was started one day before surgery, and continued throughout the remainder of the experiment. Fresh atrasentan was provided ˜2-3× per week for two weeks. The remaining nine mice received only free food and water access, serving as controls.
# The degree of post-ischemic loss of renal mass was assessed by comparing the weights of kidneys from sham operated mice, control post-ischemic mice, and post ischemic mice that had received atrasentan treatment. Finally, frontal sections of post-ischemic kidneys were taken from five control mice and five atrasentan-treated mice, fixed in 10% buffered formalin, and used for subsequent histochemical analyses.
# This example studies whether atrasentan treatment, restricted to the post-ischemic period, confers renal protection. This experiment was designed to help resolve the issue of when atrasentan was inducing its protective effect. To this end, the same protocol described in Example 2 was repeated, but atrasentan administration was commenced 24 hours after the induction of ischemic damage). At the end of two weeks, the mice were re-anesthetized and the left and right kidneys were weighed. The degree of post ischemic renal weight reduction (the primary endpoint of the above described experiment) was determined. […]
# This example studies the potential effects of atrasentan on renal growth independent of ischemic injury. To ascertain whether atrasentan treatment might impact renal growth or size independent of an effect on renal ischemia/post ischemic injury, renal weights of the contralateral (non ischemic) kidneys from the Example 2 were assessed and compared to ischemic kidneys with and without treatment with atrasentan. […]
# [2] = system: post ischemic kidneys; assay: renal histology (H and E injury score, KI-67 staining) of two week post ischemic kidneys; format: in vivo, CD-1 mice; details: pre+post atrasentan
# Method: Calculations and Statistics: All values are presented as means±1 SEM. Statistical comparisons were performed by unpaired Student's t test. The mRNA data were generated by competitive RT-PCR, with the results for any given message being expressed as a ratio to the simultaneously determined GAPDH product, used as a housekeeping gene. ChIP data, generated with real time PCR (qPCR) are presented as ng/mg total applied chromatin. The severity of histologic injury, as determined by studying H and E stained kidney sections, was assessed by blinded scoring of slides of 2 week post ischemic kidneys from 5 Atrasentan treated (24 hrs pre-ischemia, and 2 weeks post-ischemia) mice, and from 5 non Atrasentan treated post ischemic controls. […]
# This example examined renal histology on kidneys from five control mice and five atrasentan-treated mice from Example 2. […] In addition, renal tubular cell proliferation was assessed by immunohistochemical staining for KI-67, a nuclear protein marker of all active cell cycle phases (G1, S, G2, mitosis; but not Go). (Scholzen T, et al., The Ki-67 protein: from the known and the unknown. J Cell Physiol. 182: 311-322, 2000.) The percent of KI-67 cells was determined on whole kidney sections, captured with ScanScope AT (Aperio, Vista, Calif.), and then analyzed with Nuclear Algorithm Spectrum software (version 11.1.1.764; Aperio).
# [3] = system: bilateral ischemic renal injury; assay: bilateral ischemic renal injury, severity at 24 hours post ischemia; format: in vivo, CD-1 mice; details: 22.5 min or 25 min bilateral ischemia
# Method: as §1
# This example studies whether atrasentan pre-treatment protects against the acute ischemic injury phase. More particularly, the possibility that atrasentan might mitigate the acute injury phase, and thus, cause a subsequent preservation of renal mass, was explored by subjecting mice to either 22.5 minutes or 25 minutes of bilateral ischemic renal injury in the presence or absence of atrasentan pre-treatment for 24 hours before and for 24 hours after the induction of renal ischemia. […]
# The severity of injury was assessed at 24 hours post ischemia by BUN and plasma creatinine concentrations. […] As a second marker of renal injury, renal cortical NGAL mRNA levels were also assessed. Measurement of NGAL mRNA represents a more sensitive biomarker of kidney injury than BUN and Plasma Creatinine measured in FIG. 8 and was measured to investigate the effect of atrasentan on the induction phase of ischemic injury.
# [4] = system: proximal tubule (HK-2) cells
# Method: After eighteen hours of incubation, lethal cell injury was assessed by % LDH release.
# [5] = molecular target: ETB receptor; details: read-out: K1 of ET-1/ETB binding affinity; cited from earlier work
Compound,"post ischemic loss of renal mass (renal weight) ([1]; atrasentan commenced 24 hours after induction of ischemic damage, two weeks)","post ischemic kidney weight (renal mass) ([1]; atrasentan in drinking water ~5 mg/Kg/day, started one day before 30 min unilateral ischemia and continued two weeks post ischemia, vs normal kidneys)","contralateral (non ischemic) kidney weight, hypertrophic response ([1]; pre+post atrasentan, two weeks, drug vs. no-drug groups)","% KI-67 nuclear positivity ([2]; two week post ischemic kidney, control ischemia 11.4±0.8%, normal kidneys 2.4±0.6%) [%]","histologic injury score (semiquantitative 1+ to 4+, least to most severe) ([2]; two weeks post ischemia, control ischemia 3.4±0.3, p<0.01, mean±SEM)","severity of AKI by BUN and plasma creatinine concentrations ([3]; atrasentan 24 hours before and 24 hours after, assessed 24 hours post ischemia)","renal cortical NGAL mRNA levels ([3]; atrasentan 24 hours before and after, 24 hours post ischemia)","LDH release ([4]; CAD (antimycin A/Ca ionophore/2-deoxyglucose) + 5 μg atrasentan, 18 hours, CAD alone 22.8±0.2%) [%]","LDH release ([4]; human, 18 h, 5 μg/mL) [%]",effect on renal parameters measured ([1]; BQ-788 administered both pre- and post-ischemia),"post ischemic kidney weight ([1]; BQ-788 subcutaneously each day from 1 day before surgery, two weeks post ischemia, control ischemia 0.23 grams) [grams]",Ki [5] [nM]
"CCCCN(CCCC)C(=O)CN1C[C@H](c2ccc3c(c2)OCO3)[C@@H](C(=O)O)[C@@H]1c1ccc(OC)cc1 [atrasentan, (2R,3R,4S)-4-(1,3-benzodioxol-5-yl)-1-[2-(dibutylamino)-2-oxoethyl]-2-(4-methoxyphenyl)pyrrolidine-3-carboxylic acid]",completely blocked this loss of renal mass,did not significantly differ from that of normal kidneys,no effect on this hypertrophic response,10.8±1.2,1.7±0.4,failed to mitigate the severity of AKI,in neither instance did atrasentan decrease these NGAL mRNA increases,23.2±0.3,9.0±0.1,–,–,–
"CCCC[C@@H](NC(=O)[C@@H](Cc1cn(C(=O)OC)c2ccccc12)NC(=O)[C@H](CC(C)(C)C)NC(=O)N1[C@H](C)CCC[C@@H]1C)C(=O)[O-].[Na+] [BQ-788, N-cis-2,6-dimethylpiperidinocarbonyl-L-gamma-methylleucyl-D-1-methoxycarbonyltryptophanyl-D-norleucine]",–,–,–,–,–,–,–,–,–,no effect on any of the renal parameters measured,0.24,100
